Columns and labels:
[1] = Half life in Han-Wistar rat at 2.54 to 5.4 uM/kg, po; format: ADME, organism-based; conditions: in vivo
[2] = Intrinsic clearance in mouse hepatocytes assessed as parent compound disappearance at 1 uM per 10^6 cells; format: ADME, cell-based, Hepatocyte; conditions: read-out: CLH
[3] = target: T1, Muscarinic acetylcholine receptor M2 (Homo sapiens, UniProt P08172); experiment: Inhibition of muscarinic M2 receptor
T1 sequence (P08172 whole entry): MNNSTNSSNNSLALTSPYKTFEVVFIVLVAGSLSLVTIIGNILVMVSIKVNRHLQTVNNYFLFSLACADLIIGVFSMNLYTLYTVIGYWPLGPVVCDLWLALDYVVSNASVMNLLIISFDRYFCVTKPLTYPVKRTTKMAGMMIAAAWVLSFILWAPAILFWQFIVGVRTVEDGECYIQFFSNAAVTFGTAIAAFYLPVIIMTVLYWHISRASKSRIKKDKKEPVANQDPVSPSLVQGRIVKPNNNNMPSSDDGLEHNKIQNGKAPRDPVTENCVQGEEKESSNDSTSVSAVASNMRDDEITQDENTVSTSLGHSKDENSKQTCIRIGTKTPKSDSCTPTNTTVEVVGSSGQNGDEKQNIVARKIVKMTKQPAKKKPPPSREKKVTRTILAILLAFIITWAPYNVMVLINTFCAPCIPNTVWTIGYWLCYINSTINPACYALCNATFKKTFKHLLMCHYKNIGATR

O-acyltransferase = target: T2, O-acyltransferase (Canis lupus familiaris, UniProt A0A8I3N393); experiment: Inhibition of DGAT1 in dog liver microsomes; design: species or system Microsome
T2 sequence (A0A8I3N393 whole entry): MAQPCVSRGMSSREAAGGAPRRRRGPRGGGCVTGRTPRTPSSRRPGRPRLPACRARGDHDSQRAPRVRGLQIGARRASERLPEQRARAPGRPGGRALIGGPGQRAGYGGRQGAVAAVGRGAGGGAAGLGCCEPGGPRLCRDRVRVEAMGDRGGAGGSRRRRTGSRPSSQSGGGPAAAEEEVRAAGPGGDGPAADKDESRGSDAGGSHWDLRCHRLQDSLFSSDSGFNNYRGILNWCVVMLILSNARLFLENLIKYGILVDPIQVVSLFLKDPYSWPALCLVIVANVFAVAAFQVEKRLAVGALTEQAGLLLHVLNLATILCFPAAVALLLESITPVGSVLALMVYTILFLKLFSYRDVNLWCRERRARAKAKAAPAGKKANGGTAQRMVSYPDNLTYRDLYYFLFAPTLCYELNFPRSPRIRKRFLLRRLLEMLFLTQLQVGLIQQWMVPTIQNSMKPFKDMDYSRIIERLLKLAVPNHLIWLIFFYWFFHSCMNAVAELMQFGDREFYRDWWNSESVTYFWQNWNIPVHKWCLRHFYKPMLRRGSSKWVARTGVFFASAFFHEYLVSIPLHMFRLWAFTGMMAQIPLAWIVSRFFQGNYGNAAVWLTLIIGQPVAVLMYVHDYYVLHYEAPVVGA

[4] = target: T3, Diacylglycerol O-acyltransferase 1 (Mus musculus, UniProt Q9Z2A7); experiment: Inhibition of DGAT1 in mouse liver microsomes; design: species or system Microsome
T3 sequence (Q9Z2A7 whole entry): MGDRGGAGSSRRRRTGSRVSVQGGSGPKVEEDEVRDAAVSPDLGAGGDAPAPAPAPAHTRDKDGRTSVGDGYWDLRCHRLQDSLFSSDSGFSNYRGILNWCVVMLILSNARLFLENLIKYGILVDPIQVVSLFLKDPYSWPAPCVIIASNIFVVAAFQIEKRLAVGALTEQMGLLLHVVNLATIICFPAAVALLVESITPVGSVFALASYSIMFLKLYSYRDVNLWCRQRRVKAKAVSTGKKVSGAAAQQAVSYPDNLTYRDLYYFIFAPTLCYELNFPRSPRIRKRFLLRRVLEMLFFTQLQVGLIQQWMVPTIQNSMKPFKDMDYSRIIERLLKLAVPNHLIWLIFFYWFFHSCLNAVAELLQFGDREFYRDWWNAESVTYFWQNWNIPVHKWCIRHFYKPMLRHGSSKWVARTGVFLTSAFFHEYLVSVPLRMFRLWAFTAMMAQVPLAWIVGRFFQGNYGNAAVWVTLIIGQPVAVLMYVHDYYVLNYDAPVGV

[5] = Intrinsic clearance in dog hepatocytes assessed as parent compound disappearance at 1 uM per 10^6 cells; format: ADME, cell-based, Canis lupus familiaris, Hepatocyte; conditions: read-out: CLH
[6] = Octanol/water partition coefficient, log D of the compound at pH 7.4; format: physicochemical
[7] = target: cAMP and cAMP-inhibited cGMP 3',5'-cyclic phosphodiesterase 10A (Homo sapiens, UniProt Q9Y233); experiment: Inhibition of PDE10A1 […]
Sequence of cAMP and cAMP-inhibited cGMP 3',5'-cyclic phosphodiesterase 10A (Q9Y233 whole entry): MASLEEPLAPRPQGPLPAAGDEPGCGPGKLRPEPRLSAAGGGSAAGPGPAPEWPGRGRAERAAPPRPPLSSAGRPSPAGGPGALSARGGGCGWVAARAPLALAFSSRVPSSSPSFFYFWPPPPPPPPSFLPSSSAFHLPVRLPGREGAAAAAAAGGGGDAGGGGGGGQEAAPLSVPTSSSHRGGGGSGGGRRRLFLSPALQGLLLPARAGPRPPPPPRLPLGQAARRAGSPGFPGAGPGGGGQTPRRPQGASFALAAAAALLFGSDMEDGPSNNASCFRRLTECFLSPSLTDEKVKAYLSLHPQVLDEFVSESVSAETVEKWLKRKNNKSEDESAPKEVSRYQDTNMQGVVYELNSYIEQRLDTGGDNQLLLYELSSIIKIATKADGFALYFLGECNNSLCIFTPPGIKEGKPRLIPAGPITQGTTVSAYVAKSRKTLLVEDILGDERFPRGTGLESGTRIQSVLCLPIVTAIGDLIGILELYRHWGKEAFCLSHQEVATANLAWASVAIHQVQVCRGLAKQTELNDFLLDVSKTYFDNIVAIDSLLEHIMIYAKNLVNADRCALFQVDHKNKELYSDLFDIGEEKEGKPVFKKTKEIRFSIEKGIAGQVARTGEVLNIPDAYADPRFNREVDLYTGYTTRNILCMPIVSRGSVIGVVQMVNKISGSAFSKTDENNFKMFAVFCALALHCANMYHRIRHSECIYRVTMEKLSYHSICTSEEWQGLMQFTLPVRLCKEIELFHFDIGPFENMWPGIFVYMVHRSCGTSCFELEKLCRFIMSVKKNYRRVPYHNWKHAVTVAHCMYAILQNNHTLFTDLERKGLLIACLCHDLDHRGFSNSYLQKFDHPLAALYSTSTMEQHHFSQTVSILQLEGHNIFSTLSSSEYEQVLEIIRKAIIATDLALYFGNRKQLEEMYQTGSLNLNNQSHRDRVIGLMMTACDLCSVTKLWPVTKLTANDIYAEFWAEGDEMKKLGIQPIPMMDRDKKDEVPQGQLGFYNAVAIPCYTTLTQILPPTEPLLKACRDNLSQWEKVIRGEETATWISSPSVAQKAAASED

half-life [1]: 840 min | hepatocyte CLint at 1 µM [2]: 7.3 µL/min/1e6 cells | IC50 [3]: 80.5 µM | IC50 (O-acyltransferase): 60 nM | IC50 [4]: 100 nM | hepatocyte CLint at 1 µM [5]: 5.5 µL/min/1e6 cells | logD [6]: 0.9 | IC50 [7]: 5.5 µM
Compound: Cc1nc(C)c(-c2ccc(C3CCC(CC(=O)O)CC3)cc2)nc1C(N)=O (stereo not drawn) [AZD-7687]

— ChEMBL document CHEMBL2176918, “Design and optimization of pyrazinecarboxamide-based inhibitors of diacylglycerol acyltransferase 1 (DGAT1) leading to a clinical candidate dimethylpyrazinecarboxamide phenylcyclohexylacetic acid (AZD7687)” (J Med Chem, 2012)
